Assay results published in ChEMBL document CHEMBL1201862, “PubChem BioAssay data set” (2004).
“And” between values parts separate entries of the source, which are not always exact repeats. Equal values may be shown once.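 Protocol summary: plate cells (96-well), add compound at 5 concentrations, incubate 48 h, interpolate endpoints linearly. GI50 = concentration required for 50% inhibition of growth.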 The source made the active and inactive calls. Rule as the data show it: active = GI50 up to about 1.1 µM and inactive = higher.

What was measured:
Assay in all cases: DTP human tumour cell line panel, 48 h
[1] = system: OVCAR-5
[2] = system: MDA-MB-231
[3] = system: DU-145
[4] = system: SF-539
[5] = system: TK-10
[6] = system: HCC 2998
[7] = system: COLO 205
[8] = system: UACC-257
[9] = system: HCT-116
[10] = system: OVCAR-8
[11] = system: ACHN
[12] = system: IGROV-1
[13] = system: SK-OV-3
[14] = system: CCRF-CEM
[15] = system: RPMI-8226
[16] = system: A549
[17] = system: HL-60
[18] = system: OVCAR-4
[19] = system: NCI-H23
[20] = system: T47D

Measured: GI50

COc1ccc(/C=C2\CCC(C)(CN(C)C)C2=O)cc1Br (stereo not drawn)
inactive: [1] 37.7 µM | [2] 36.1 µM | [3] 50.4 µM | [4] 21.5 µM | [5] 22 µM | [6] 20.8 µM | [7] 18.5 µM | [8] 19.5 µM | [9] 17.2 µM | [10] 17 µM | [11] 24.6 µM | [12] 16.2 µM | [13] 30.1 µM | [14] 37.5 µM | [15] 19.1 µM | [16] 38.4 µM | [17] 34.8 µM | [18] 18.9 µM | [19] 28.8 µM

CN(N=O)c1ccc(/C=C/c2ccnc3ccccc23)cc1
inactive: [1] > 100 µM | [2] 88.7 µM | [3] 61.5 µM | [4] 88.5 µM | [5] 29.4 µM | [7] 39.3 µM | [8] 72.4 µM | [9] 34 µM | [10] 58.1 µM | [11] 47 µM | [12] 49 µM | [13] > 100 µM | [14] 47.3 µM | [16] 41.6 µM | [17] 92.3 µM | [18] > 100 µM | [19] > 100 µM | [20] 50.4 µM

COc1cccc2c1C(=O)C1(O)CCCCC21 (stereo not drawn)
inactive: [1] > 100 µM | [4] > 100 µM | [5] > 100 µM | [6] > 100 µM | [7] > 100 µM | [8] > 100 µM | [9] > 100 µM | [10] > 100 µM | [11] > 100 µM | [12] > 100 µM | [13] > 100 µM | [14] > 100 µM | [15] > 100 µM | [16] > 100 µM | [17] > 100 µM | [18] > 100 µM | [19] > 100 µM

CCOc1ccc(NC(=O)C(=O)NO)cc1
inactive: [1] > 100 µM | [4] > 100 µM | [5] > 100 µM | [6] > 100 µM | [7] > 100 µM | [8] > 100 µM | [9] > 100 µM | [10] > 100 µM | [11] > 100 µM | [12] > 100 µM | [13] > 100 µM | [14] > 100 µM | [15] > 100 µM | [16] > 100 µM | [17] > 100 µM | [18] > 100 µM | [19] > 100 µM

COC(=O)C1OC(O[C@H]2CC[C@]3(C)[C@H]4CC=C5[C@@H]6CC(C)(C)CC[C@]6(C(=O)OC6OCC(O)C(O)C6OC6OC(C)C(OC7OCC(O)C(O)C7O)C(O)C6O)CC[C@@]5(C)[C@]4(C)CC[C@H]3C2(C)C)C(O)C(O)C1O (stereo partly drawn)
inactive: [1] 16.5 µM and 20.7 µM | [3] 18 µM and 22.1 µM | [6] 11.9 µM and 14.2 µM | [7] 13.1 µM and 16.9 µM | [8] 14 µM and 16 µM | [9] 17.1 µM and 18.4 µM | [10] 21.4 µM and 15.2 µM | [12] 24.8 µM and 45.8 µM | [13] 21.2 µM and 21.3 µM | [14] 22.6 µM and 22.4 µM | [15] 23.9 µM and 18.8 µM | [16] 16.9 µM and 19.5 µM | [17] 21.2 µM and 19.1 µM | [18] 15.8 µM and 12.7 µM | [19] 15.4 µM and 15.8 µM | [20] 28.2 µM and 18.2 µM

O=c1c(=O)c2c(Br)sc(Br)c2c1=O
inactive: [1] 20.3 µM | [3] > 100 µM | [4] 19.5 µM | [5] 22.1 µM | [6] 57.3 µM | [7] 20.3 µM | [8] 19.5 µM | [9] 20.1 µM | [10] 18.3 µM | [11] 20.6 µM | [12] 18.2 µM | [13] 43.8 µM | [15] 21.6 µM | [16] > 100 µM | [18] 16.4 µM | [19] 20.3 µM | [20] 20 µM

NC(Cc1ccc(O)cn1)C(=O)NC(C(=O)O)c1ccccc1 (stereo not drawn)
inactive: [1] > 100 µM | [2] > 100 µM | [3] > 100 µM | [4] > 100 µM | [5] > 100 µM | [6] > 100 µM | [7] > 100 µM | [8] > 100 µM | [9] > 100 µM | [10] > 100 µM | [11] > 100 µM | [12] > 100 µM | [14] > 100 µM | [15] > 100 µM | [16] > 100 µM | [17] > 100 µM | [18] > 100 µM | [19] > 100 µM

O=C(COc1ccc(Cl)cc1Cl)N/N=C/C=C/c1ccc([N+](=O)[O-])o1
inactive: [1] > 100 µM | [2] 6.95 µM | [4] 7.31 µM | [5] 7.67 µM | [9] 1.87 µM | [10] 3.44 µM | [11] 4.63 µM | [12] 1.42 µM | [13] 14.6 µM | [14] 3.13 µM | [15] 2.26 µM | [16] 8.24 µM | [17] 3.76 µM | [18] 4.35 µM | [19] 3.18 µM | [20] > 100 µM
